How the values were obtained:
Type in all cases: cell-based
Ba/F3 (EGFR L858R/C797S) = Ba/F3 (EGFR L858R/C797S) (Homo sapiens, UniProt P00533, C797S/L858R, cells depend on it); experiment: Cell proliferation inhibitory activity assay, Ba/F3 EGFR L858R/C797S; settings: cell proliferation inhibition, 72 hours, luminescence; read-out: Ba/F3 cells overexpressing different EGFR mutations IC50 (nM) L858R/C797S
Experimental: (§1) Suspension cells Ba/F3 (EGFR. Dell9/T790M/C797S), Ba/F3 (EGFR L858R/T790M/C797S), Ba/F3 (EGFR Del19/C797S), and Ba/F3 (EGFR L858R/C797S) overexpressing different EGFR mutations were cultured in PRMI 1640 containing 10% FBS and 1% PS, and adherent cells A431 carrying EGFR WT were cultured in DMEM containing 10% FBS and 1% PS. The experimental steps for compound activity detection are as follows: • (1) Take adherent cells in the logarithmic growth phase, digest them with trypsin count them, and then inoculate them into a 96-well plate at a certain density. Incubate them overnight at 37° C. and 5% CO2 to allow them to adhere.
(§2) Y=minimum+([…])/(1+10^((Log IC50−X)*slope)); • X: logarithm of compound concentration; Y: cell survival inhibition rate.

[1] = target: Ba/F3 (EGFR L858R/T790M/C797S) (Homo sapiens, UniProt P00533, T790M/C797S/L858R, cells depend on it); experiment: Cell proliferation inhibitory activity assay, Ba/F3 EGFR L858R/T790M/C797S; settings: cell proliferation inhibition, 72 hours, luminescence; read-out: Ba/F3 cells overexpressing different EGFR mutations IC50 (nM) L858R/T790M/C797S
Sequence of Ba/F3 (EGFR L858R/T790M/C797S) (P00533 whole entry T790M/C797S/L858R): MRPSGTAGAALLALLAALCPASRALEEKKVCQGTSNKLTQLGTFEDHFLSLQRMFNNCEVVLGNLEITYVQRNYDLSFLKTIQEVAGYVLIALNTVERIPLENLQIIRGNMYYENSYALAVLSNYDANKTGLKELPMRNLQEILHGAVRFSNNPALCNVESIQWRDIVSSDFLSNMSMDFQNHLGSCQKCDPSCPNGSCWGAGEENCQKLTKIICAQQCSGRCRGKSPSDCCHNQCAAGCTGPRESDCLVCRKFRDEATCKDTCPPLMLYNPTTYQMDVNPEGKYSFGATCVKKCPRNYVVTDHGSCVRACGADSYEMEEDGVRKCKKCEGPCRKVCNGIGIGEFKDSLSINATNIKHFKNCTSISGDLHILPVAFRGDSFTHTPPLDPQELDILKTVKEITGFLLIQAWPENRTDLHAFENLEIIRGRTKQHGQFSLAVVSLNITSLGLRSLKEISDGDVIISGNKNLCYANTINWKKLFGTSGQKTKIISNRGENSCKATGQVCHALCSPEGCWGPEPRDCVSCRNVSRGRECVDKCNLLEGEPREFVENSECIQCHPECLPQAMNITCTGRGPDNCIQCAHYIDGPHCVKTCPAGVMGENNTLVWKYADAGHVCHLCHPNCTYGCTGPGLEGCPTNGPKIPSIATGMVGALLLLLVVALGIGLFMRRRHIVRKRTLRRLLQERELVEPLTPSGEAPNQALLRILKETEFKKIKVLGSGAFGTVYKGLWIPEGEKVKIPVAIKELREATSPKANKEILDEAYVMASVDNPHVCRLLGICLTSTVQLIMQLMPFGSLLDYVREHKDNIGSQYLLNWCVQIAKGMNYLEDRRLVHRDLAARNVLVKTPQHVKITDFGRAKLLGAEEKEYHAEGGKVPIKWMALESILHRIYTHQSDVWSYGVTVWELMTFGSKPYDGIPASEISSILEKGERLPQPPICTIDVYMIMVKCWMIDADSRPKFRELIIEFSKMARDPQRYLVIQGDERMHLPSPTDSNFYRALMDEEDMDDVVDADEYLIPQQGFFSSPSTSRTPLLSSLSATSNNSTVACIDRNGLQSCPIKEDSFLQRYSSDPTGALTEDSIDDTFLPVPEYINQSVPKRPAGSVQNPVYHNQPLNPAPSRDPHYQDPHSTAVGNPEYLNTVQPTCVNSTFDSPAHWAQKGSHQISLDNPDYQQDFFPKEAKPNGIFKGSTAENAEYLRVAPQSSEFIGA
Experimental: as §1, §2

[2] = system: A431 cell carrying EGFR WT; experiment: Cell proliferation inhibitory activity assay, A431; settings: Homo sapiens, A-431; cell proliferation inhibition, 72 hours, luminescence
Experimental: as §1, §2

Ba/F3 (EGFR Del19/C797S) = Ba/F3 (EGFR Del19/C797S) (Homo sapiens, UniProt P00533, C797S, cells depend on it, form not given); experiment: Cell proliferation inhibitory activity assay, Ba/F3 EGFR Del19/C797S; settings: cell proliferation inhibition, 72 hours, luminescence; read-out: Ba/F3 cells overexpressing different EGFR mutations IC50 (nM) Del19/C797S
Sequence of Ba/F3 (EGFR Del19/C797S) (P00533 with tags, fused parts or gaps DEL746-750/C797S, form open): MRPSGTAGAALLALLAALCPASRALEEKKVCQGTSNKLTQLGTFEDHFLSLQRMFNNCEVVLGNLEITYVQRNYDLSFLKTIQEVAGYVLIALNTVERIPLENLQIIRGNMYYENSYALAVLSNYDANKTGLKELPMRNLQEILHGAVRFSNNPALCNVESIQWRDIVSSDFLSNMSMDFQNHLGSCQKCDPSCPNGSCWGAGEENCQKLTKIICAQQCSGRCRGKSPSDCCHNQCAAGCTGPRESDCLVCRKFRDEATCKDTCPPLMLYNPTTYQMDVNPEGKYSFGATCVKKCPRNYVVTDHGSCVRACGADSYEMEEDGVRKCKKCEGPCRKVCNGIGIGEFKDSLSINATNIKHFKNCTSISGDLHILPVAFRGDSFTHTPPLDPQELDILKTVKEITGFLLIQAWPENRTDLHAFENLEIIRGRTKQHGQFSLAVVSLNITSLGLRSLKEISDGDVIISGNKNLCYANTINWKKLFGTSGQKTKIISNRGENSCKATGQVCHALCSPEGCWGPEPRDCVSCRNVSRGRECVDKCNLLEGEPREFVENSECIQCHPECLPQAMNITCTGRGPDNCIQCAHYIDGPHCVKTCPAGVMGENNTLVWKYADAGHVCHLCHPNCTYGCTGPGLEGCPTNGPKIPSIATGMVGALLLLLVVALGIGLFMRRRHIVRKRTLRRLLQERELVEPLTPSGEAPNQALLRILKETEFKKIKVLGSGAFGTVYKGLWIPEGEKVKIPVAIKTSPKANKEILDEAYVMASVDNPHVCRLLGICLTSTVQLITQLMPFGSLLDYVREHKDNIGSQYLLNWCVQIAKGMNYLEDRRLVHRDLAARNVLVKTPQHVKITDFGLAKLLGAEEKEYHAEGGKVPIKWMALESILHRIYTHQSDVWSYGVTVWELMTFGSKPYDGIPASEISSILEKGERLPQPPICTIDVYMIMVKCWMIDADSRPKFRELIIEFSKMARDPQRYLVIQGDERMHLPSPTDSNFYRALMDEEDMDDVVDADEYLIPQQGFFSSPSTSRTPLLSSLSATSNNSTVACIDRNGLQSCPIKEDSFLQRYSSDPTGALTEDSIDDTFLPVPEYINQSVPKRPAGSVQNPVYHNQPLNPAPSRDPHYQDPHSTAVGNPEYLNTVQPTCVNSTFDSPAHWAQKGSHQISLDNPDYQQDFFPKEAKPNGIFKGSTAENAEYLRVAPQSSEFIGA
Experimental: as §1, §2

[3] = target: Ba/F3 cells overexpressing EGFR Del19/T790M/C797S (Homo sapiens, UniProt P00533, T790M/C797S, cells depend on it, form not given); experiment: Cell proliferation inhibitory activity assay, Ba/F3 EGFR Del19/T790M/C797S; settings: cell proliferation inhibition, 72 hours, luminescence; read-out: Ba/F3 cells overexpressing different EGFR mutations IC50 (nM) Del19/T790M/C797S
Sequence of Ba/F3 cells overexpressing EGFR Del19/T790M/C797S (P00533 with tags, fused parts or gaps DEL746-750/T790M/C797S, form open): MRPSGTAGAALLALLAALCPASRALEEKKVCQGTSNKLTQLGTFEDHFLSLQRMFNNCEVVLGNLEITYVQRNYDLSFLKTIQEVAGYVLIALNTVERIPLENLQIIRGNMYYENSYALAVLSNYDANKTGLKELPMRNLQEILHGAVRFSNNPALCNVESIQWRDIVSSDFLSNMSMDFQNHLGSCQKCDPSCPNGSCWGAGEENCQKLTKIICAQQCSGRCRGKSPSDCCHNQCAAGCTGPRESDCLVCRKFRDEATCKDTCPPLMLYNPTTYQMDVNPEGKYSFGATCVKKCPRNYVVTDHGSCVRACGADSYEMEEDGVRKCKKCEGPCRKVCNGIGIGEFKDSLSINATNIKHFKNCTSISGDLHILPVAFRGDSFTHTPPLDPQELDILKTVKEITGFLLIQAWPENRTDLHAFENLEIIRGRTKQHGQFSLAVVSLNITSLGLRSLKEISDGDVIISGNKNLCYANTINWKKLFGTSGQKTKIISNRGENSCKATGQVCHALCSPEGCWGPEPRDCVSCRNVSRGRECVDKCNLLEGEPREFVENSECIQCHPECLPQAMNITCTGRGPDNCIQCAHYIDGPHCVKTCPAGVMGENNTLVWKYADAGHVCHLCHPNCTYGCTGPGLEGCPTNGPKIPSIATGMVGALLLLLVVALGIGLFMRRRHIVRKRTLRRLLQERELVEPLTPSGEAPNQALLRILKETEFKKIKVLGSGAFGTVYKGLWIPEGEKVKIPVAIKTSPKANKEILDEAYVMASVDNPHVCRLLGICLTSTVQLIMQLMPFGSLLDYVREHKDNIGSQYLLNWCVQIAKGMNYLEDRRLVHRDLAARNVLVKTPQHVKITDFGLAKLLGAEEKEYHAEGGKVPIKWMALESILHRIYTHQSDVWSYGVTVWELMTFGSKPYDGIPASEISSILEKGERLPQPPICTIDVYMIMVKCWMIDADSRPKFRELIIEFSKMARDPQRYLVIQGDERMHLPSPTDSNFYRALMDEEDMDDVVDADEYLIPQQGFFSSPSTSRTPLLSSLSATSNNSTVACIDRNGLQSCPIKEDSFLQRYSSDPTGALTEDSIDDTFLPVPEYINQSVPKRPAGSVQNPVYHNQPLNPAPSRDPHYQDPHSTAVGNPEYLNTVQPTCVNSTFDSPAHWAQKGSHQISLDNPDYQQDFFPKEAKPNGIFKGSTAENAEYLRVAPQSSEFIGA
Experimental: as §1, §2

Sequence of Ba/F3 (EGFR L858R/C797S) (P00533 whole entry C797S/L858R): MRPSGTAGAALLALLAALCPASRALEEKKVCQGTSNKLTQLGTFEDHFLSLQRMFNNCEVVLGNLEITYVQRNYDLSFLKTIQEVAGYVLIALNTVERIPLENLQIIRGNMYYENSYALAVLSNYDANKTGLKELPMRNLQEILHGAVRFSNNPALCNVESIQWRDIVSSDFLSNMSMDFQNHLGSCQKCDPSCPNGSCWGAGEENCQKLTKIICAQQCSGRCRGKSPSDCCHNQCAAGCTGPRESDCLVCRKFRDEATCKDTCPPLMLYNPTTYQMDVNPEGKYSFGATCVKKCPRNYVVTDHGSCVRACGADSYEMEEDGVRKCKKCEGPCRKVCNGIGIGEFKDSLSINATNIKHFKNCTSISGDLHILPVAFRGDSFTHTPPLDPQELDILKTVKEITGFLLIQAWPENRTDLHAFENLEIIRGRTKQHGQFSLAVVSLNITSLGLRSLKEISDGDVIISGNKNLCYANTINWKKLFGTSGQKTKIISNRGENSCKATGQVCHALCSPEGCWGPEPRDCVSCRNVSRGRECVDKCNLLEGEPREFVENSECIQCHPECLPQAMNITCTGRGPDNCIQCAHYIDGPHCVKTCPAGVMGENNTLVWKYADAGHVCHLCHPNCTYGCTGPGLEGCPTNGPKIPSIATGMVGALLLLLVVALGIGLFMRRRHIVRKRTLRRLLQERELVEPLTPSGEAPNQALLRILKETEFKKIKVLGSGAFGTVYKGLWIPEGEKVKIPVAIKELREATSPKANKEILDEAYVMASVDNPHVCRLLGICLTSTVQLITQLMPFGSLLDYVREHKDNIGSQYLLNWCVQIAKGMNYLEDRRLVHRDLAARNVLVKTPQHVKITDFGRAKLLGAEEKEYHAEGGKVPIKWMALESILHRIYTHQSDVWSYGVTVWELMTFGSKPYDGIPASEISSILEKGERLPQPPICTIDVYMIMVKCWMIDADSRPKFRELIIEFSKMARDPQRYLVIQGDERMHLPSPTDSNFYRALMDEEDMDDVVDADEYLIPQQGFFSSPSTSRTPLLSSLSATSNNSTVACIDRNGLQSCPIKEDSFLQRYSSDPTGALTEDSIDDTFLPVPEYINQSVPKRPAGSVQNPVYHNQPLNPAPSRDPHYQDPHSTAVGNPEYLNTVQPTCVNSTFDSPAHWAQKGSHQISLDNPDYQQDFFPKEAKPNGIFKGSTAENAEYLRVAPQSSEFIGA

SMILES	GI50 (Ba/F3 (EGFR L858R/C797S))	GI50 [1]	IC50 [2]	GI50 (Ba/F3 (EGFR Del19/C797S))	GI50 [3]
Cc1cc2cc(n1)-c1cnccc1OCCCC(C)(C)Cn1c(nc3ccc(N4CCC5(CCN(C)CC5)CC4)cc31)NC2=O [Example 7, 2^6,9,9-trimethyl-5^6-(9-methyl-3,9-diazaspiro[5.5]undecan-3-yl)-5^1H-11-oxa-4-aza-5(2,1)-benzo[d]imidazola-1(3,4),2(2,4)-dipyridinacycloundecaphan-3-one]	11 nM	3.7 nM	226 nM	4.5 nM	1.6 nM
Cc1cc2cc(n1)-c1cnc(F)cc1OCCC[C@@H](C)Cn1c(nc3ccc(N4CCC5(CCNCC5)CC4)cc31)NC2=O [Example 9, (R)-1^6-fluoro-2^6,7-dimethyl-5^6-(3,9-driazaspiro[3.5]undecan-3-yl)-5^1-11-oxa-4-aza-5(2,1)-benzo[d]imidazola-1(3,4),2(2,4)-dipyridinacycloundecaphan-3-one]	3.6 nM	1.1 nM	425 nM	0.77 nM	0.73 nM
Cc1cc2cc(n1)-c1cnccc1OCCC[C@@H](C)Cn1c(nc3cc(C)c(N4CCC5(CCN(C)CC5)CC4)cc31)NC2=O [Example 11, (R)-2^6,5^3,7-trimethyl-5^6-(9-methyl-3,9-diazaspiro[5.5]undecan-3-yl)-5^1H-11-oxa-4-aza-5(2.I)-benzo[d]imidazola-1(3,4),2(2,4)-dipyridinacycloundecaphan-3-one]	1 nM	3.4 nM	493 nM	0.15 nM	2.2 nM
Cc1cc2cc(n1)-c1cnccc1OCCCCCn1c(nc3cc(F)c(N4CCC5(CCN(C)CC5)CC4)cc31)NC2=O [Example 14, 5^5-fluoro-2^6-methyl-5^6-(9-methyl-3,9-diazaspiro[5.5]undecan-3-yl)-5^1H-11-oxa-4-aza-5(2,1)-benzo[d]imidazola-1(3,4),2(2,4)-dipyridinacycloundecaphan-3-one]	1.8 nM	1.5 nM	805 nM	0.18 nM	0.37 nM
COCCCN1CCC2(CC1)CCN(c1ccc3nc4n(c3c1)C[C@H](C)CCCOc1cc(F)ncc1-c1cc(cc(C)n1)C(=O)N4)CC2 [Example 17, 1^6-fluoro-5^6-(9-(3-methoxypropyl)-3,9-diazaspiro[5.5]undecan-3-yl)-2^6-methyl-5^1H-11-oxa-4-aza-5(2,1)-benzo[d]imidazola-1(3,4),2(2,4)-dipyridinacycloundecaphan-3-one]	18 nM	4.7 nM	1470 nM	5 nM	1.2 nM
Cc1cc2cc(n1)-c1cnccc1OCCCCCn1c(nc3ccc(N4CCC5(CCN(CCC(N)=O)CC5)CC4)cc31)NC2=O [Example 18, 3-(9-(2^6-methyl-3-oxo-5^1H-11-oxa-4-aza-5(2,1)-benzo[d]imidazola-1(3,4),2(2,4)-dipyridinacycloundecaphane-5^6-yl)-3,9-diazaspiro[5.5]undecan-3-yl)propanamide]	3.9 nM	2.1 nM	631 nM	0.5 nM	0.77 nM
Cc1cc2cc(n1)-c1cnccc1OCCC[C@@H](C)Cn1c(nc3ccc(N4CCC5(CC4)CCN(C4CC4)CC5)cc31)NC2=O [Example 45, (R)-5^6-(9-cyclopropyl-3,9-diazaspiro[5.5]undecan-3-yl)-2^6,7-dimethyl-5^1H-11-oxa-4-aza-5(2,1)-benzo [d]imidazola-1(3,4),2(2,4)-dipyridinacyclo-undecaphan-3-one]	2.1 nM	3.7 nM	701 nM	0.27 nM	1.6 nM
Cc1cc2cc(n1)-c1cnccc1OCCCCCn1c(nc3cc(F)c(N4CCC5(CCN(CCF)CC5)CC4)cc31)NC2=O [Example 61, 5^5-fluoro-5^6-(9-(2-fluoroethyl)-3,9-diazaspiro [5.5]undecan-3-yl)-2^6-methyl-5^1H-11-oxa-4-aza-5(2,1)-benzo [d]imidazola-1(3,4),2(2,4)-dipyridinacyclo-undecaphan-3-one]	3 nM	1.8 nM	1080 nM	0.29 nM	0.91 nM
Cc1cc2cc(n1)-c1cnccc1OCCCCCn1c(nc3cc(F)c(N4CCC5(CCN(CC6COC6)CC5)CC4)cc31)NC2=O [Example 62, 5^5-fluoro-2^6-methyl-5^6-(9-(oxetan-3-ylmethyl)-3,9-diazaspiro [5.5]undecan-3-yl)-5^1H-11-oxa-4-aza-5(2,1)-benzo[d] imidazola-1(3,4),2(2,4)-dipyridinacyclo-undecaphan-3-one]	3.8 nM	3 nM	772 nM	0.57 nM	0.95 nM
Cc1cc2cc(n1)-c1cnccc1OCCCCCn1c(nc3cc(F)c(N4CCC5(CC4)CCN(C4COC4)CC5)cc31)NC2=O [Example 63, 5^5-fluoro-2^6-methyl-5^6-(9-(oxetan-3-yl)-3,9-diazaspiro[5.5]undecan-3-yl)-5^1H-11-oxa-4-aza-5(2,1)-benzo [d]imidazola-1(3,4),2(2,4)-dipyridinacyclo-undecaphan-3-one]	2 nM	1.5 nM	472 nM	0.67 nM	0.5 nM
Cc1cc2cc(n1)-c1cnccc1OCCCCCn1c(nc3cc(F)c(N4CCC5(CC4)CCN(C4CC4)CC5)cc31)NC2=O [Example 65, 5^6-(9-cyclopropyl-3,9-diazasptro [5.5]undecan-3-yl)-5^5-fluoro-2^6-methyl-5^1H-11-oxa-4-aza-5(2,1)-benzo [d]imidazola-1(3,4),2(2,4)-dipyridinacyclo-undecaphan-3-one]	4.6 nM	2.3 nM	1250 nM	0.69 nM	1.1 nM
COCCN1CCC2(CC1)CCN(c1ccc3nc4n(c3c1)CCCCCOc1ccncc1-c1cc(cc(C)n1)C(=O)N4)CC2 [Example 75, 5^6-(9-(2-methoxy-ethyl)-3,9-diazaspiro[5.5]undecan-3-yl)-2^6-methyl-5^1H-11-oxa-4-aza-5(2,1)-benzo[d] imidazola-1(3,4), 2(2,4)-dipyridinacyclo-undecaphan-3-one]	0.07 nM	0.08 nM	646 nM	0.11 nM	0.07 nM
Cc1cc2cc(n1)-c1cnccc1OCCC[C@@H](C)Cn1c(nc3ccc(N4CCC5(CC4)CCN(C4COC4(C)C)CC5)cc31)NC2=O (stereo partly drawn) [Example 82, (7R)-5^6-(9-(2,2-dimethyloxetan-3-yl)-3,9-diazaspiro[5.5]undecan-3-yl)-2^6,7-dimethyl-5^1H-11-oxa-4-aza-5(2,1)-benzo [d]imidazola-1(3,4),2(2,4)-dipyridinacyclo-undecaphan-3-one]	17 nM	12 nM	770 nM	2.9 nM	4.7 nM
Cc1cc2cc(n1)-c1cnccc1OCCC[C@@H](C)Cn1c(nc3ccc(N4CCC5(CC4)CCN(C4COC4C)CC5)cc31)NC2=O (stereo partly drawn) [Example 83, (7R)-2^6,7-dimethyl-5^6-(9-(2-methyloxetan-3-yl)-3,9-diazaspiro [5.5]undecan-3-yl)-5^1H-11-oxa-4-aza-5(2,1)-benzo[d] imidazola-1(3,4),2(2,4)-dipyridinacyclo-undecaphan-3-one]	2 nM	2 nM	294 nM	0.27 nM	1.3 nM
Cc1cc2cc(n1)-c1cnccc1OCCCCCn1c(nc3ccc(N4CCC5(CCN(CCN(C)C)CC5)CC4)cc31)NC2=O [Example 87, 5^6-(9-(2-(dimethyl-amino)ethyl)-3,9-diazaspiro [5.5]undecan-3-yl)-2^6-methyl-5^1H-11-oxa-4-aza-5(2,1)-benzo [d]imidazola-1(3,4),2(2,4)-dipyridinacyclo-undecaphan-3-one]	21 nM	11 nM	1410 nM	5.8 nM	5.4 nM
Cc1cc2cc(n1)-c1cnccc1OCCCCCn1c(nc3ccc(N4CCC5(CC4)CCN(C4CC4)CC5)cc31)NC2=O [Example 89, 5^6-(9-cyclopropyl-3,9-diazaspiro [5.5]undecan-3-yl)-2^6-methyl-5^1H-11-oxa-4-aza-5(2,1)-benzo[d] imidazola-1(3,4),2(2,4)-dipyridinacyclo-undecaphan-3-one]	6.5 nM	4.6 nM	1210 nM	0.71 nM	1.8 nM
